The values that follow are results of earlier work, collected in patent US7687492B2, “1,2,4-Oxadiazole derivatives as dipeptidyl peptidase-IV inhibitors for the treatment or prevention of diabetes” (Merck Sharp & Dohme Corp., priority 2004, dated 2010).

The conditions of series [1]: rats; Transplantation, 63: 1495-1500 (1997).
The conditions of series [2]: mouse, cyclophosphamide-induced neutropenia; WO 99/56753.
A further series concerns the target T1, DP-IV (Homo sapiens, UniProt P27487).
T1 construct: GRF is rapidly degraded in plasma to GRF[3-44]; host or cells: plasma (endogenous enzyme activity)

T1 sequence (P27487 whole entry): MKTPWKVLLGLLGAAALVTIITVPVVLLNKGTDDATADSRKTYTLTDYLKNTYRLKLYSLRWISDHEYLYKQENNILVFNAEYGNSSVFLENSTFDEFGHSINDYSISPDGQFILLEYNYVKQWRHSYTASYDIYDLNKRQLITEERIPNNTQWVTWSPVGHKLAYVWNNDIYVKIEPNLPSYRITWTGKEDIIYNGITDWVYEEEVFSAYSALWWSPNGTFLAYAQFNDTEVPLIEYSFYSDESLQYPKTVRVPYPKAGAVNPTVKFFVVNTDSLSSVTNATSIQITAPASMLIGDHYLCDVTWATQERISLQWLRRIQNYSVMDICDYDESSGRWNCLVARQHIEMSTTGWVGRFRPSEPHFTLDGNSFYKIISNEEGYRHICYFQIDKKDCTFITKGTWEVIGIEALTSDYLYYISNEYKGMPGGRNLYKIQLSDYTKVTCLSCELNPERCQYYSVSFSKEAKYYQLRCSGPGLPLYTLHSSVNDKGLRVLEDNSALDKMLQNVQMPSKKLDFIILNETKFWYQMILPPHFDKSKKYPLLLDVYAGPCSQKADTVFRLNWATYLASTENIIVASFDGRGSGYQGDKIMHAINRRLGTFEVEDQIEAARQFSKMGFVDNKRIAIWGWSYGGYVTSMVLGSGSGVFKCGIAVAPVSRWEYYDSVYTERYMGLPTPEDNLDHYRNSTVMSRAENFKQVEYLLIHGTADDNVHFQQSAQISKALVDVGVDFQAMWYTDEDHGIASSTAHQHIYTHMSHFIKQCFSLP

As for `CC(C)N1CCC(c2ccccc2)(c2ccccc2)CC1` [Prodipine, Pro-Pro-diphenyl-phosphonate], in series [1], the cardiac allograft survival result is “double cardiac allograft survival in rats from day 7 to day 14”.
Regarding `CC(C)[C@H](N)C(=O)N1CCC[C@H]1B(O)O` [Val-Boro-Pro], in series [2], the hematopoiesis entry is “stimulated hematopoiesis”.
diprotin A: the “degradation of GRF in plasma to GRF[3-44]” value on DP-IV is listed as “prevented”.
